Assay results: ChEMBL document CHEMBL1201862, “PubChem BioAssay data set” (2004)
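Briefly, cells in 96-well plates were exposed to five compound concentrations for 48 h, and endpoints were estimated by linear interpolation. At the GI50, growth is halved.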 The source made the active and inactive calls. No stated cut-off is given here; in the data, active = GI50 up to about 1.1 µM and inactive = higher.

Legend:
Test in all cases: NCI anticancer screen, dose series, 48 h
OVCAR-3 = system: OVCAR-3
NCI-H23 = system: NCI-H23
COLO 205 = system: COLO 205
SK-MEL-2 = system: SK-MEL-2
U-251 = system: U-251
M19-MEL = system: M19-MEL
CAKI-1 = system: CAKI-1
HCT-15 = system: HCT-15
SK-MEL-5 = system: SK-MEL-5
UACC-62 = system: UACC-62
SF-268 = system: SF-268
LOX IMVI = system: LOX IMVI
A549 = system: A549
SK-MEL-28 = system: SK-MEL-28
HCC 2998 = system: HCC 2998
RPMI-8226 = system: RPMI-8226

Row | Structure (SMILES) | GI50 (OVCAR-3) | GI50 (NCI-H23) | GI50 (COLO 205) | GI50 (SK-MEL-2) | GI50 (U-251) | GI50 (M19-MEL) | GI50 (CAKI-1) | GI50 (HCT-15) [µM] | GI50 (SK-MEL-5) | GI50 (UACC-62) | GI50 (SF-268) | GI50 (LOX IMVI) | GI50 (A549) | GI50 (SK-MEL-28) | GI50 (HCC 2998) | GI50 (RPMI-8226)
1 | COc1ccccc1-n1c(C)nc2ccccc2c1=O | > 100 µM (inactive) | > 100 µM (inactive) | > 100 µM (inactive) | > 100 µM (inactive) | > 100 µM (inactive) | > 100 µM (inactive) | > 100 µM (inactive) | > 100 | > 100 µM (inactive) | > 100 µM (inactive) | > 100 µM (inactive) | > 100 µM (inactive) | > 100 µM (inactive) | > 100 µM (inactive) | > 100 µM (inactive) | 
2 | N#CCCN(CCC#N)c1ccc(/C=C2\N=C(c3cc([N+](=O)[O-])ccc3Cl)OC2=O)cc1 | 27.8 µM (inactive) |  |  | 20 µM (inactive) | 17.6 µM (inactive) | 20.5 µM (inactive) | > 100 µM (inactive) | 53.2 | 16 µM (inactive) | 62.4 µM (inactive) | 45.1 µM (inactive) | 23.7 µM (inactive) | > 100 µM (inactive) | 52.6 µM (inactive) | 21.6 µM (inactive) | 88.7 µM (inactive)
3 | CC(=O)Oc1cc(OC(C)=O)c(OC(C)=O)c2c1CC1C(=O)C3(CCc4ccccc43)C(=O)C1C2 (configuration not stated) | 4.82 µM (inactive) | 18.4 µM (inactive) | 19.6 µM (inactive) |  | 15.8 µM (inactive) | 15.7 µM (inactive) | 20.2 µM (inactive) | 18.1 |  | 14.5 µM (inactive) | > 10 µM (inactive) | 6.67 µM (inactive) | 19.5 µM (inactive) | 18.2 µM (inactive) | 6.7 µM (inactive) | 0.555 µM (active)
4 | C[Si]1(C)C(c2ccccc2)=CC2C(c3ccccc3)(c3ccccc3)OC21c1ccccc1 (configuration not stated) | > 100 µM (inactive) | > 100 µM (inactive) | > 100 µM (inactive) | > 100 µM (inactive) | > 100 µM (inactive) | > 100 µM (inactive) | > 100 µM (inactive) | > 100 | 63.7 µM (inactive) | > 100 µM (inactive) | > 100 µM (inactive) | > 100 µM (inactive) | > 100 µM (inactive) | > 100 µM (inactive) | > 100 µM (inactive) | 30.1 µM (inactive)
5 | COc1cc(/C=C2\C(=O)N(C(=O)Cc3ccccc3)N=C2C)ccc1O | > 100 µM (inactive) | > 100 µM (inactive) | > 100 µM (inactive) | > 100 µM (inactive) |  | > 100 µM (inactive) | > 100 µM (inactive) | > 100 | 3.01 µM (inactive) |  | > 100 µM (inactive) | > 100 µM (inactive) | > 100 µM (inactive) | > 100 µM (inactive) | > 100 µM (inactive) | > 100 µM (inactive)
6 | COc1ccc(/C(=N\NC(=O)C(N)=O)C(c2ccc(OC)cc2)C2(O)C(=O)Nc3c(Cl)cccc32)cc1 (configuration not stated) | > 100 µM (inactive) | > 100 µM (inactive) | > 100 µM (inactive) | > 100 µM (inactive) | > 100 µM (inactive) | > 100 µM (inactive) |  |  | > 100 µM (inactive) | > 100 µM (inactive) | > 100 µM (inactive) | 58.6 µM (inactive) | > 100 µM (inactive) | > 100 µM (inactive) | > 100 µM (inactive) | > 100 µM (inactive)
7 | CC1=CP(=O)(OC(C)C)C=C(C)C1=C(Cl)Cl (configuration not stated) | > 100 µM (inactive) | 52.7 µM (inactive) | 18.2 µM (inactive) | 20.3 µM (inactive) | 35.7 µM (inactive) | 38.4 µM (inactive) |  | 46 | 30.8 µM (inactive) | 32.6 µM (inactive) | > 100 µM (inactive) | 57 µM (inactive) | 26.4 µM (inactive) | 63.5 µM (inactive) | > 100 µM (inactive) | 32.7 µM (inactive)
